Measured values from patent US5604215A, “Steroid sulphatase inhibitors” (Imperial College of Science, Technology and Medicine, priority 1991, dated 1997).
Where two headings read alike, the source gives them in different places.

Key:
[1] = biological target: T1, steroid sulphatase in placental microsomes (Homo sapiens, UniProt P08842); test: Inhibition of Steroid Sulphatase Activity in Placental Microsomes ([6,7-^3 H]oestrone-3-sulphate substrate); assay type: biochemical; conditions: 20 μM oestrone-3-sulphate, 100 μg/ml protein, 20 minutes, 37° C., calculated IC50
T1 construct: Sulphatase-positive human placenta from normal term pregnancies; from tissue; host or cells: human term placenta (Obstetric Ward, St. Mary's Hospital, London), 2000 g supernatant of the homogenate
T1 sequence (P08842 22-583): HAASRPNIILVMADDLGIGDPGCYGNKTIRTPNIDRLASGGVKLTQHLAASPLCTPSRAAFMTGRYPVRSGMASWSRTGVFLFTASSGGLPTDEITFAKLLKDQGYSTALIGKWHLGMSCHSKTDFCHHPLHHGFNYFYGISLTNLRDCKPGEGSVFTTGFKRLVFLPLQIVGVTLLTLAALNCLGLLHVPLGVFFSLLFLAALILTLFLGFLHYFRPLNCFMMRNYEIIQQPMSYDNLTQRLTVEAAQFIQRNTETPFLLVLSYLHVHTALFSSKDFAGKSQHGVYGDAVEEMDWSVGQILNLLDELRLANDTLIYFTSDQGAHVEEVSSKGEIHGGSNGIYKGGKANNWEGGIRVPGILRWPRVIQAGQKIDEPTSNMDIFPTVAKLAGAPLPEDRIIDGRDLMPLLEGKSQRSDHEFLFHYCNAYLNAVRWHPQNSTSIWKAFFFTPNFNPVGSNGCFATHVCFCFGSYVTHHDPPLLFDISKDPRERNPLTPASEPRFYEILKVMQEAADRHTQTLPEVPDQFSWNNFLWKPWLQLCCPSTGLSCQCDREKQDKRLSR
Experimental: Sulphatase-positive human placenta from normal term pregnancies (Obstetric Ward, St. Mary's Hospital, London) were thoroughly minced with scissors and washed once with cold phosphate buffer (pH 7.4, 50 mM) then re-suspended in cold phosphate buffer (5 ml/g tissue). Homogenisation was accomplished with an Ultra-Turrax homogeniser, using three 10 second bursts separated by 2 minute cooling periods in ice. Nuclei and cell debris were removed by centrifuging (4° C.) at 2000 g for 30 minutes and portions (2 ml) of the supernatent were stored at -20° C. The protein concentration of the supernatents was determined by the method of Bradford (Anal. Biochem., 72, 248-254 (1976)).
Incubations (1 ml) were carried out using a protein concentration of 100 μg/ml, substrate concentration of 20 μM [6,7-^3 H]oestrone-3-sulphate (specific activity 60 Ci/mmol from New England Nuclear, Boston, Mass., U.S.A.) and an incubation time of 20 minutes at 37° C. The following oestrone-3-phosphonates were added to separate samples at a range of concentrations individually adjusted to span the 50% inhibition level:
After incubation each sample was cooled and the medium (1 ml) was pipetted into separate tubes containing [^14 C]oestrone (7×10^3 dpm) (specific activity […] from Amersham International Radiochemical Centre, Amersham, U.K.). The mixture was shaken thoroughly for 30 seconds with toluene (5 ml). […] A portion (2 ml) of the organic phase was removed, evaporated and the ^3 H and ^14 C content of the residue determined by scintillation spectrometry. The mass of oestrone-3-sulphate hydrolysed was calculated from the ^3 H counts obtained (corrected for the volumes of medium and organic phase used, and for recovery of [^14 C]oestrone added) and the specific activity of substrate.
Results for steroid sulphatase activity are expressed in Table III as calculated IC50 values (i.e. the concentration of oestrone-3-phosphonate which produced 50% inhibition in relation to control). […]

[2] = biological target: T2, steroid sulphatase (Steryl Sulphatase EC 3.1.6.2) in MCF-7 cells (Homo sapiens, UniProt P08842); test: Inhibition of Steroid Sulphatase Activity in MCF-7 cells (intact MCF-7 human breast cancer cells, [6,7-^3 H]oestrone-3-sulphate substrate); assay type: cell-based; conditions: for inhibition at 10 µM: MCF7, Table II, inhibition over control incubations, read-out: % reduction over control (% inhibition), oestrone-3-sulphonates; for Steroid Sulphatase Activity in MCF-7 cells in the presence of oestrone-3-sulphonates: 10 μM, mean ± 1 S.D. n = 3, control 80.1 ± 3.3 (E1 -3-MeS: control 46.5 ± 2.3), *p ≤ 0.05 (E1 -3-BuS), **p ≤ 0.01 (EtS, CamS, MeS), E1 -3-MePhS: mean of 2 estimates, control 71.3
T2 construct: intact MCF-7 human breast cancer cells; endogenous in cells; host or cells: MCF-7 human breast cancer cells
T2 sequence (P08842 22-583): T1 sequence (P08842 22-583)

[3] = biological target: T2, steroid sulphatase (Steryl Sulphatase EC 3.1.6.2) in MCF-7 cells; test: as above; assay type: cell-based
Experimental: Steroid sulphatase is defined as: Steryl Sulphatase EC 3.1.6.2.
Steroid sulphatase activity was measured in vitro using intact MCF-7 human breast cancer cells. This hormone dependent cell line is widely used to study the control of human breast cancer cell growth. […] Up to 30 replicate 25 cm^2 tissue culture flasks were seeded with approximately 1×10^5 cells/flask using the above medium. Cells were grown to 80% confluency and medium was changed every third day.
Intact monolayers of MCF-7 cells in triplicate 25 cm^2 tissue culture flasks were washed with Earle's Balanced Salt Solution (EBSS from ICN Flow, High Wycombe, U.K.) and incubated for […] at 37° C. with 5 pmol (7×10^5 dpm) [6,7-^3 H]oestrone-3-sulphate (specific activity 60 Ci/mmol from New England Nuclear, Boston, Mass., U.S.A.) in serum-free MEM (2.5 ml) together with 10 μM of each of four oestrone-3-phosphonates:
After incubation each flask was cooled and the medium (1 ml) was pipetted into separate tubes containing [^14 C]oestrone (7×10^3 dpm) (specific activity […] from Amersham International Radiochemical Centre, Amersham, U.K.). The mixture was shaken thoroughly for 30 seconds with toluene (5 ml). […] A portion (2 ml) of the organic phase was removed, evaporated and the ^3 H and ^14 C content of the residue determined by scintillation spectrometry. The mass of oestrone-3-sulphate hydrolysed was calculated from the ^3 H counts obtained (corrected for the volumes of the medium and organic phase used, and for recovery of [^14 C]oestrone added) and the specific activity of the substrate. […] The number of cell nuclei per flask was determined using a Coulter Counter after treating the cell monolayers with Zaponin.
Results are expressed as the mean ±1 S.D. of the total product (oestrone+oestradiol) formed during the incubation period (20 hours) calculated for 10^6 cells and as a percentage reduction (inhibition) over incubations containing no oestrone-3-phosphonate for values showing statistical significance. […]

[4] = Table IV, read-out: Steroid Sulphatase Activity in placental microsomes in the presence of oestrone-3-sulphonates (IC50)

Cc1ccc(S(=O)(=O)Oc2ccc3c(c2)CC[C@@H]2[C@@H]3CC[C@]3(C)C(=O)CC[C@@H]23)cc1 [E1-3-MePhS, oestrone-3-p-toluenesulphonate]
IC50 [1, 4]: 130 µM | inhibition at 10 µM [2]: 90.5%

C[C@]12CC[C@@H]3c4ccc(O[PH](=O)O)cc4CC[C@H]3[C@@H]1CCC2=O [E1-3-HP, oestrone-3-hydrogen-phosphonate]
inhibition at 10 µM ([3]; MCF7, Table I, inhibition over incubations containing no oestrone-3-phosphonate, read-out: % reduction over control (% inhibition), oestrone-3-phosphonates): 80.1% | IC50 ([1]; Table III, read-out: Steroid Sulphatase Activity in placental microsomes in the presence of oestrone-3-phosphonates (IC50)): 5000 µM

CCS(=O)(=O)Oc1ccc2c(c1)CC[C@@H]1[C@@H]2CC[C@]2(C)C(=O)CC[C@@H]12 [E1-3-EtS, oestrone-3-ethylsulphonate]
Steroid Sulphatase Activity in MCF-7 cells in the presence of oestrone-3-sulphonates [2]: 58.4 ± 1.9 fmol/20 hr/10^6 cells | inhibition at 10 µM [2]: 27.1%

C[C@]12CC[C@@H]3c4ccc(OP(=O)(O)c5ccccc5)cc4CC[C@H]3[C@@H]1CCC2=O [E1-3-PhP, oestrone-3-phenylphosphonate]
% reduction over control (% inhibition), oestrone-3-phosphonates ([3]; 10 μM, Table I, inhibition over incubations containing no oestrone-3-phosphonate): 70.3% | Steroid Sulphatase Activity in MCF-7 cells in the presence of oestrone-3-phosphonates ([3]; 10 μM, mean ± 1 S.D. n = 3, control 46.5 ± 2.3, ***p ≤ 0.001, E1 -3-HP: mean of 2 estimates, control 71.3): 13.8 ± 0.7 fmol/20 hr/10^6 cells

C[C@]12CC[C@@H]3c4ccc(OS(C)(=O)=O)cc4CC[C@H]3[C@@H]1CCC2=O [E1-3-MeS, oestrone-3-methylsulphonate]
IC50 [1, 4]: 205 µM | Steroid Sulphatase Activity in MCF-7 cells in the presence of oestrone-3-sulphonates [2]: 21.3 ± 3.5 fmol/20 hr/10^6 cells | inhibition at 10 µM [2]: 54.2%

CCCCS(=O)(=O)Oc1ccc2c(c1)CC[C@@H]1[C@@H]2CC[C@]2(C)C(=O)CC[C@@H]12 [E1-3-BuS, oestrone-3-n-butylsulphonate]
Steroid Sulphatase Activity in MCF-7 cells in the presence of oestrone-3-sulphonates [2]: 66.8 ± 3.3 fmol/20 hr/10^6 cells | inhibition at 10 µM [2]: 16.6%

CC1(C)C2CCC1(CS(=O)(=O)Oc1ccc3c(c1)CC[C@@H]1[C@@H]3CC[C@]3(C)C(=O)CC[C@@H]13)C(=O)C2 (stereo partly drawn) [E1-3-CamS, oestrone-3-camphorylsulphonate]
Steroid Sulphatase Activity in MCF-7 cells in the presence of oestrone-3-sulphonates [2]: 62.7 ± 1.8 fmol/20 hr/10^6 cells | inhibition at 10 µM [2]: 21.7%
